# Data from patent US4450167A, “3-Quinoline carboxamides having anxiolytic activity” (Roussel Uclaf, priority 1981, dated 1984).
# Target: benzodiazepine receptors
# Experiment: Affinity for benzodiazepine receptors (3H Diazepam displacement, rat cortex membranes)
# Format: binding
# Conditions: rat brain cortex membranes, 3H Diazepam 10^-9 moles, 0° C., 30 minutes; read-out: CI50, concentration inhibiting by 50% the specific bonding of 3H diazepam
# Experimental: The test was inspired by Mohler et al [Science, No. 198 (1977), p. 849-851] in which the cortex was removed from the brains of male rats weighing an average of 150 g and homogenized at a ratio of 1 part by weight per 20 parts by volume of 0.32 M sucrose. The homogenized mixture was centrifuged at 1000 g for 10 minutes at 0° C. and the surnageant was centrifuged at 30,000 g for 20 minutes at 4° C. The culot was suspended in 20 volumes of Tris HCl 50 mM buffer with a pH of 7.4 and the suspension was centrifuged at 30,000 g for 20 minutes at 4° C. The resulting culot was suspended in 50 ml of Krebs Tris HCl buffered at a pH of 7.4 and 2 ml of the suspension was incubated at 0° C. for 30 minutes in the presence of ^3 H Diazepam at a concentration of 10^-9 moles with increasing concentration of the test product to determine the non-specificfixation with non-radioactive Diazepam at a concentration of 10^-6 moles.
# The incubated suspensions were filtered through a Whatman GF/C filter and the filters were washed twice with 5 ml of Krebs Tris HCl buffer at a pH of 7.4 not 0° C. The radioactivity of the filters was measured by liquid scintillation and the affinity of the test product for benzodiazepine receptors was expressed in CI50 or the concentration inhibiting by 50% the specific bonding of ^3 H diapezam.
row,Structure (SMILES),IC50
1,"CCOc1ccc(NC(=O)c2cnc3ccccc3c2O)cc1 [Example 1, 4-hydroxy-N-(4-ethoxyphenyl)-3-quinoline-carboxamide]",40 nM
2,"CCCNC(=O)c1cnc2ccccc2c1O [Example 24, 4-hydroxy-N-propyl-3-quinoline-carboxamide]",1.2 nM
3,"COc1cccc(NC(=O)c2cnc3ccccc3c2O)c1 [Example 16, 4-hydroxy-N-(3-methoxy-phenyl)-3-quinoline-carboxamide]",6.6 nM
4,"O=C(Nc1ccc(O)cc1)c1cnc2ccccc2c1O [Example 7, 4-hydroxy-N-(4-hydroxyphenyl)-3-quinoline-carboxamide]",4.4 nM
5,"COc1ccc(NC(=O)c2cnc3ccccc3c2O)cc1 [Example 6, 4-hydroxy-N-(4-methoxyphenyl)-3-quinoline-carboxamide]",7.5 nM
6,"COc1ccc(NC(=O)c2c(C)nc3ccccc3c2O)cc1 [Example 23, 4-hydroxy-N-(4-methoxyphenyl)-2-methyl-3-quinoline-carboxamide]",23 nM
7,"CCNC(=O)c1cnc2ccccc2c1O [Example 8, 4-hydroxy-N-ethyl-3-quinoline-carboxamide]",11 nM
8,"COc1ccccc1NC(=O)c1cnc2ccccc2c1O [Example 13, 4-hydroxy-N-(2-methoxy-phenyl)-3-quinoline-carboxamide]",54 nM
9,"CCCCNC(=O)c1cnc2ccccc2c1O [Example 9, 4-hydroxy-N-butyl-3-quinoline-carboxamide]",3.7 nM
10,"CCCCCCNC(=O)c1cnc2ccccc2c1O [Example 10, 4-hydroxy-N-n-hexyl-3-quinoline-carboxamide]",6.7 nM
